Patent US20220168310A1, “INHIBITION OF ADENOVIRUS WITH FILOCICLOVIR” (Microbiotix, Inc., priority 2019, published 2022)

Assays:
adenovirus 4 (AdV4) = assay: Efficacy against adenovirus 4 (data not shown)
AdV5 = assay: Immunofluorescence assay (DBP and hexon staining), AdV5-infected A549 cells; type: cell-based, human adenovirus; settings: 27 hours post-infection
Method: Human A549 cells on glass coverslips in 6-well plates were infected at an MOI of 5 PFU/cell with either AdV5 or AdV6 or were mock-infected. After 1 hour, filociclovir was added to a final concentration of 0, 4, 10, or 40 μM. At 27 hours post-infection, the A549 cells were fixed in paraformaldehyde (3.7% in PBS) and permeabilized with methanol. Cells were stained for the Adenovirus DNA-binding protein and adenovirus hexon. DBP staining will be […] and uniform during early AdV infection (prior to AdV DNA replication). DBP associates with replication centers as the infection progresses. The replication centers are initially small “dots” (each dot results from one incoming AdV genome). The replication centers will expand and “multiply” as DNA replication takes place. The nuclei become enlarged and misshapen as infection progresses. AdV hexon, the most abundant component of the AdV viral capsid, is not expressed until after DNA replication is taking place and is therefore considered to be a “late” AdV protein.

adenovirus = assay: Dose-dependent inhibition of adenovirus infection (summary statement); type: cell-based; settings: unidentified adenovirus
adenovirus 8 (AdV8) = assay: CPE reduction assay, adenovirus 8; type: cell-based, human adenovirus; settings: unidentified adenovirus, unit not given in Table 2 (Table 1 in μM)
Method: Similar experiments were carried out with filociclovir against adenovirus 6, adenovirus 7, and adenovirus 8.

Human AdV6 = assay: High dose filociclovir against intravenously administered AdV6 in immunosuppressed hamsters (Example 5); settings: for mortality: p=0.0124 vs AdV6+Vehicle; for virus burden in the liver: TCID50
Method: Four dose levels were tested: 10, 30, 60, and 100 mg/kg p.o. q.d. The highest dose was determined based on rat toxicology data.
All hamsters were immunosuppressed using cyclophosphamide (CP). CP was administered intraperitoneally at a dose of 140 mg/kg, and then twice weekly at a dose of 100 mg/kg.
Filociclovir, in powdered form, was suspended in 0.4% carboxymethyl cellulose (Sigma C5678) at 1, 3, 6, and 10 mg/ml and sonicated to visual homogeneity and aliquots stored at 4° C. Aliquots were allowed to equilibrate to room temperature before dosing. Hamsters weighing approximately 100 g were dosed with a 1 ml volume of the appropriate suspension for the 10, 30, 60, and 100 mg/kg dose levels. References to “vehicle” refers to 0.4% carboxymethyl cellulose
The hamsters were divided into 8 groups, 15 hamsters/group, (with the exception of Group 2, which had only 5 hamsters; see Table 3), immunosuppressed, and then injected i.v. with vehicle (Groups 1-2) or 2×10^10 PFU/kg of AdV6 (Groups […]). Groups 1 and 3 received drug vehicle (p.o. q.d.), Group 4 received 10 mg/kg filociclovir (p.o. q.d.), Group 5 received 30 mg/kg filociclovir (p.o. q.d.), Group 6 received 60 mg/kg filociclovir (p.o. q.d.), Groups 2 and 7 received 100 mg/kg filociclovir (p.o. q.d.), and Group 8 received cidofovir (20 mg/kg, 3 times weekly). For all groups, drug administration started 1 day before challenge, and continued according to the schedule above for the duration of the study.
The body weights and any signs of morbidity of the animals were recorded daily. At 5 days post challenge, 5 hamsters (designated at the start of the experiment) from each group (with the exception of Group 2) were sacrificed, and gross pathological observation was performed. Serum and liver samples were collected and the virus burden in liver was determined by a TCID50 assay, and the serum was analyzed for transaminase levels. The remaining 10 hamsters were sacrificed at 14 days post challenge. Hamsters that became visually moribund before Day 14 were sacrificed as needed. In addition to the hamsters observed to be moribund, all hamsters that lost more than 20% of their original body weight were also sacrificed. For the hamsters sacrificed at the conclusion of the experiment and those sacrificed as moribund, serum and liver tissues were collected and banked for possible determination of serum transaminase levels and virus burden in the liver. Liver tissue was preserved in formalin for possible histopathological examination.

`Nc1nc2c(ncn2/C=C2/CC2(CO)CO)c(=O)[nH]1` [FCV, 2-amino-9-{(Z)-[2,2-bis(hydroxymethyl)cyclopropylidene]methyl}-3,9-dihydro-6H-purin-6-one] was tested, and the “treat or prevent infection” value (adenovirus 4 (AdV4)) was “effective”, the hexon-positive cells (AdV5; AdV5, 4 μM) was “Some hexon-positive cells” and the hexon-positive cells (AdV5; AdV5, 10 μM) was “extremely few hexon-positive cells”. For the same molecule, the hexon-positive cells (AdV5; AdV5, 40 μM) was “No hexon-positive cells”, the IC50 (adenovirus) was no more than 5000 nM and the EC50 (adenovirus 8 (AdV8)) was 2.45 µM. For the same molecule, the body weight loss (Human AdV6; 10 mg/kg p.o. q.d.) was “reversed”, the mortality (Human AdV6; 10 mg/kg p.o. q.d.) was “prevented mortality” and the “virus burden in the liver” value (Human AdV6; 10 mg/kg, 5 days post challenge) was “one animal in the AdV6+10 mg/kg filociclovir group with a very low liver virus burden”. For the same molecule, the body weight loss (Human AdV6; 30 mg/kg p.o. q.d.) was “reversed”, the mortality (Human AdV6; 30 mg/kg p.o. q.d.) was “prevented mortality” and the “virus burden in the liver” value (Human AdV6; 30 mg/kg, 5 days post challenge) was “nondetectable level”. The “toxicity for AdV6-infected hamsters” value (Human AdV6; 60 mg/kg p.o. q.d.) was “toxic”, the “toxicity for AdV6-infected hamsters” value (Human AdV6; 100 mg/kg p.o. q.d.) was “toxic” and the “animals with elevated serum transaminase levels (ALT)” value (Human AdV6; 5 days post challenge, filociclovir p.o. q.d. groups, CDV 20 mg/kg 3 times weekly) was “none”. The “kidney pathology at day 5 sacrifice” value (Human AdV6; AdV6+60 mg/kg) was “extensive kidney pathology” and the “kidney pathology at day 5 sacrifice” value (Human AdV6; AdV6+100 mg/kg) was “extensive kidney pathology”.
